# Data reported in patent US20230346831A1, “METHODS FOR TREATING […] USING LOW DOSE CARBON MONOXIDE” (priority 2020, published 2023).
# Several values for one entry are separate records, joined by “and”; a condition that tells them apart may be missing. Equal entries are not always repeated.
# Test system: MCF7/TGL cells
# Test: metabolomic assay (polar metabolite profiling, mass spectrometry)
# Format: cell-based, human
# Description: Extraction and analysis were performed with the same parameters as the method disclosed in FIG. 7.
# 7 × 10^6 cells were seeded in 10-cm cell culture plates with DMEM containing 10% FBS, 0.2 mM L-glutamine and 1% penicillin/streptomycin. Additionally, MCF7/TGL/pQ was cultured in media containing 0.5 µgml^-1 puromycin and 25 mM HEPES. After 16 hours of incubation, metabolites were extracted from the cells using 80% methanol. The remaining steps were carried out by Weill Cornell Medicine Proteomics and Metabolomics Core Facility according to M. D. Goncalves et al., Proc Natl Acad Sci USA 115, E743-E752 (2018). All data analyses were done using MetaboAnalyst 4.0 (www.metaboanalyst.ca/).
# To investigate whether 250 ppm CO mimics hypoxia, the HiF1α protein levels were examined in CO treated MCF7/TGL and MDA-MB-231/TGL cells. […] To determine whether 250 ppm CO affects metabolism, polar metabolites were profiled using two breast cancer cell lines, MCF7/TGL and MDA-MB-231/TGL (FIGS. 7-9).
# [1] = MCF7/TGL cells, 250 ppm CO, 16 hours
smiles,measurement,setting,value
"[C-]#[O+] [CO, Carbon monoxide]",Peak Height Cytosine,"HMDB00630, MCF7/TGL cells treated with CO, replicates CO 1-3","153,235 and 158,066 and 214,404"
same,Peak Height L-Glutamine,"HMDB00641, MCF7/TGL cells treated with CO, replicates CO 1-3","2,010,884,000 and 2,067,120,000 and 2,186,859,000"
same,Peak Height D-Fructose,"HMDB00660, MCF7/TGL cells treated with CO, replicates CO 1-3","2,161,466 and 2,426,370 and 4,390,968"
same,Peak Height Indolelactic acid,"HMDB00671, MCF7/TGL cells treated with CO, replicates CO 1-3","168,415 and 166,030 and 323,966"
same,Peak Height Indoxyl sulfate,"HMDB00682, MCF7/TGL cells treated with CO, replicates CO 1-3","31,554 and 19,025 and 38,019"
same,Peak Height L-Kynurenine,"HMDB00684, MCF7/TGL cells treated with CO, replicates CO 1-3","186,534 and 218,684 and 386,445"
same,Peak Height L-Leucine,"HMDB00687, MCF7/TGL cells treated with CO, replicates CO 1-3","319,755,000 and 339,183,100 and 446,258,700"
same,Peak Height L-Methionine,"HMDB00696, MCF7/TGL cells treated with CO, replicates CO 1-3","110,122,300 and 114,069,500 and 202,567,100"
same,Peak Height Hexanoylcarnirine,"HMDB00705, MCF7/TGL cells treated with CO, replicates CO 1-3","309,788 and 384,626 and 554,943"
same,Peak Height Hippuric acid,"HMDB00714, MCF7/TGL cells treated with CO, replicates CO 1-3","41,839 and 33,037 and 50,895"
same,Peak Height Kynurenic acid,"HMDB00715, MCF7/TGL cells treated with CO, replicates CO 1-3","57,830 and 46,636 and 67,981"
same,Peak Height Malic acid,"HMDB00744, MCF7/TGL cells treated with CO, replicates CO 1-3","118,667,000 and 141,604,200 and 190,900,500"
same,Peak Height N-Acetyl-L-alanine,"HMDB00766, MCF7/TGL cells treated with CO, replicates CO 1-3","3,050,982 and 3,282,590 and 5,343,814"
same,Peak Height Phenyllactic acid,"HMDB00779, MCF7/TGL cells treated with CO, replicates CO 1-3","375,745 and 377,557 and 505,569"
same,Peak Height 3-Phosphoglyceric acid,"HMDB00807, MCF7/TGL cells treated with CO, replicates CO 1-3","830,372 and 1,313,918 and 2,225,910"
same,Peak Height N-Acetyl-L-aspartic acid,"HMDB00812, MCF7/TGL cells treated with CO, replicates CO 1-3","107,096,600 and 121,628,700 and 146,462,300"
same,Peak Height Phenylacetylglycine,"HMDB00821, MCF7/TGL cells treated with CO, replicates CO 1-3","1,455,001 and 1,300,695 and 2,222,377"
same,Peak Height Propionylcarnitine,"HMDB00824, MCF7/TGL cells treated with CO, replicates CO 1-3","88,247,270 and 88,089,220 and 114,107,300"
same,Peak Height Ureidosuccinic acid,"HMDB00828, MCF7/TGL cells treated with CO, replicates CO 1-3","967,259 and 2,115,336 and 2,977,458"
same,Peak Height L-Valine,"HMDB00883, MCF7/TGL cells treated with CO, replicates CO 1-3","166,887,800 and 164,029,200 and 219,042,800"
same,Peak Height Acetylcholine,"HMDB00895, MCF7/TGL cells treated with CO, replicates CO 1-3","79,843,420 and 75,982,720 and 87,382,500"
same,Peak Height NAD,"HMDB00902, MCF7/TGL cells treated with CO, replicates CO 1-3","6,156,942 and 7,187,370 and 12,756,100"
same,Peak Height Citrulline,"HMDB00904, MCF7/TGL cells treated with CO, replicates CO 1-3","9,044,262 and 10,234,370 and 14,264,050"
same,Peak Height L-Tryptophan,"HMDB00929, MCF7/TGL cells treated with CO, replicates CO 1-3","30,996,070 and 34,786,840 and 68,643,900"
same,Peak Height Uridine diphosphate glucuronic acid,"HMDB00935, MCF7/TGL cells treated with CO, replicates CO 1-3","726,138 and 548,546 and 770,082"
same,Peak Height S-Adenosylhomocysteine,"HMDB00939, MCF7/TGL cells treated with CO, replicates CO 1-3","56,652 and 145,088 and 413,677"
same,Peak Height Threonic acid,"HMDB00943, MCF7/TGL cells treated with CO, replicates CO 1-3","76,882,710 and 94,196,330 and 129,619,900"
same,Peak Height dGDP,"HMDB00960, MCF7/TGL cells treated with CO, replicates CO 1-3","686,954 and 539,654 and 784,042"
same,Peak Height Hypotaurine,"HMDB00965, MCF7/TGL cells treated with CO, replicates CO 1-3","4,796,295 and 5,519,371 and 5,943,089"
same,Peak Height Adenosine phosphosulfate,"HMDB01003, MCF7/TGL cells treated with CO, replicates CO 1-3","14,981 and 16,338"
same,Peak Height Deoxyribose 5-phosphate,"HMDB01031, MCF7/TGL cells treated with CO, replicates CO 1-3","19,019 and 34,976 and 30,540"
same,Peak Height S-Lactoylglutathione,"HMDB01066, MCF7/TGL cells treated with CO, replicates CO 1-3","397,298 and 293,636 and 484,692"
same,Peak Height D-Sedoheptulose 7-phosphate,"HMDB01068, MCF7/TGL cells treated with CO, replicates CO 1-3","151,546 and 165,071 and 234,010"
same,Peak Height D-Glyceraldehyde 3-phosphate,"HMDB01112, MCF7/TGL cells treated with CO, replicates CO 1-3","1,475,183 and 1,160,887 and 1,058,732"
same,Peak Height N-Acetylglutamic acid,"HMDB01138, MCF7/TGL cells treated with CO, replicates CO 1-3","567,078 and 897,146 and 1,371,040"
same,Peak Height 5′-Methylthioadenosine,"HMDB01173, MCF7/TGL cells treated with CO, replicates CO 1-3","269,714 and 419,042 and 1,274,477"
same,Peak Height S-Adenosylmethionine,"HMDB01185, MCF7/TGL cells treated with CO, replicates CO 1-3","9,310,209 and 12,590,700 and 17,427,170"
same,Peak Height Guanosine diphosphate,"HMDB01201, MCF7/TGL cells treated with CO, replicates CO 1-3","35,607 and 34,452 and 43,718"
same,Peak Height Allantoic acid,"HMDB01209, MCF7/TGL cells treated with CO, replicates CO 1-3","44,843 and 53,026 and 96,308"
same,Peak Height 5-Thymidylic acid,"HMDB01227, MCF7/TGL cells treated with CO, replicates CO 1-3","266,456 and 133,281 and 141,715"
same,Peak Height Glucosamine 6-phosphate,"HMDB01254, MCF7/TGL cells treated with CO, replicates CO 1-3","44,392 and 62,516 and 90,486"
same,Peak Height Guanosine triphosphate,"HMDB01273, MCF7/TGL cells treated with CO, replicates CO 1-3","84,003 and 60,453 and 112,154"
same,"Peak Height N6,N6,N6-Trimethyl-L-lysine","HMDB01325, MCF7/TGL cells treated with CO, replicates CO 1-3","4,594,085 and 5,317,512 and 7,697,279"
same,Peak Height ADP,"HMDB01341, MCF7/TGL cells treated with CO, replicates CO 1-3","902,793 and 705,422 and 1,082,377"
same,Peak Height Thymidine 5′-triphosphate,"HMDB01342, MCF7/TGL cells treated with CO, replicates CO 1-3","54,889 and 34,363 and 35,046"
same,Peak Height N-Acetyl-glucosamine 1-phosphate,"HMDB01367, MCF7/TGL cells treated with CO, replicates CO 1-3","464,872 and 467,412 and 595,300"
same,Peak Height Guanosine monophosphate,"HMDB01397, MCF7/TGL cells treated with CO, replicates CO 1-3","73,405 and 58,750 and 80,249"
same,Peak Height Glucose 6-phosphate,"HMDB01401, MCF7/TGL cells treated with CO, replicates CO 1-3","1,799,795 and 2,339,699 and 3,140,759"
same,Peak Height Niacinamide,"HMDB01406, MCF7/TGL cells treated with CO, replicates CO 1-3","1,738,434 and 1,604,153 and 3,615,850"
same,Peak Height Citicoline,"HMDB01413, MCF7/TGL cells treated with CO, replicates CO 1-3","1,054,917 and 1,269,775 and 2,126,892"
same,Peak Height NADH,"HMDB01487, MCF7/TGL cells treated with CO, replicates CO 1-3","81,979 and 73,214 and 61,204"
same,Peak Height Asymmetric dimethylarginine,"HMDB01539, MCF7/TGL cells treated with CO, replicates CO 1-3","2,485,123 and 2,893,325 and 4,095,202"
same,Peak Height CDP,"HMDB01546, MCF7/TGL cells treated with CO, replicates CO 1-3","49,666 and 36,830 and 44,004"
same,Peak Height D-Ribose 5-phosphate,"HMDB01548, MCF7/TGL cells treated with CO, replicates CO 1-3","523,976 and 578,358 and 695,562"
same,Peak Height CDP-Ethanolamine,"HMDB01564, MCF7/TGL cells treated with CO, replicates CO 1-3","229,328 and 262,826 and 313,255"
same,Peak Height Phosphorylcholine,"HMDB01565, MCF7/TGL cells treated with CO, replicates CO 1-3","826,434,500 and 950,902,100 and 1,062,045,000"
same,Peak Height Glucose 1-phosphate,"HMDB01586, MCF7/TGL cells treated with CO, replicates CO 1-3","194,892 and 220,042 and 348,617"
same,Peak Height 2-Hydroxycaproic acid,"HMDB01624, MCF7/TGL cells treated with CO, replicates CO 1-3","663,141 and 926,482 and 905,559"
same,Peak Height DL-O-Phosphoserine,"HMDB01721, MCF7/TGL cells treated with CO, replicates CO 1-3","256,439 and 305,155 and 440,561"
same,Peak Height 2-Ketohexanoic acid,"HMDB01864, MCF7/TGL cells treated with CO, replicates CO 1-3","10,109,740 and 13,290,500 and 25,544,760"
same,Peak Height Acetylcysteine,"HMDB01890, MCF7/TGL cells treated with CO, replicates CO 1-3","309,165 and 445,217 and 662,532"
same,Peak Height Methionine sulfoxide,"HMDB02005, MCF7/TGL cells treated with CO, replicates CO 1-3","1,119,307 and 1,490,306 and 2,521,401"
same,Peak Height Imidazolelactic acid,"HMDB02320, MCF7/TGL cells treated with CO, replicates CO 1-3","128,890 and 215,532 and 355,864"
same,Peak Height Methylimidazoleacetic acid,"HMDB02820, MCF7/TGL cells treated with CO, replicates CO 1-3","2,032,579 and 2,307,084 and 4,227,106"
same,Peak Height Erythritol,"HMDB02994, MCF7/TGL cells treated with CO, replicates CO 1-3","124,085 and 149,580 and 273,411"
same,Peak Height Oxidized glutathione,"HMDB03337, MCF7/TGL cells treated with CO, replicates CO 1-3","1,351,310 and 1,735,245 and 4,066,758"
same,Peak Height L-Dihydroorotic acid,"HMDB03349, MCF7/TGL cells treated with CO, replicates CO 1-3","52,713 and 82,695 and 121,047"
same,Peak Height GDP-glucose,"HMDB03351, MCF7/TGL cells treated with CO, replicates CO 1-3","30,304 and 39,328 and 68,617"
same,Peak Height N-Acetylornithine,"HMDB03357, MCF7/TGL cells treated with CO, replicates CO 1-3","364,451 and 403,207 and 622,448"
same,Peak Height 4-Acetamidobutanoic acid,"HMDB03681, MCF7/TGL cells treated with CO, replicates CO 1-3","550,530 and 718,720 and 878,912"
same,Peak Height N-Acetylasparagine,"HMDB06028, MCF7/TGL cells treated with CO, replicates CO 1-3","279,146 and 204,547 and 192,934"
same,Peak Height N-Acetylglutamine,"HMDB06029, MCF7/TGL cells treated with CO, replicates CO 1-3","233,588 and 221,551 and 457,769"
same,Peak Height ADP-glucose,"HMDB06557, MCF7/TGL cells treated with CO, replicates CO 1-3","51,484 and 47,964 and 81,136"
same,Peak Height 4-Hydroxybenzaldehyde,"HMDB11718, MCF7/TGL cells treated with CO, replicates CO 1-3","1,638,500 and 1,711,975 and 2,780,422"
same,Peak Height N-Acetyl-L-methionine,"HMDB11745, MCF7/TGL cells treated with CO, replicates CO 1-3","1,517,454 and 1,648,819 and 2,302,821"
same,"Peak Height D-2,3-Dihydroxypropanoic acid","HMDB31818, MCF7/TGL cells treated with CO, replicates CO 1-3","2,390,333 and 3,141,171 and 4,932,187"
same,Peak Height 3-hydroxyhexadecanoic acid,"HMDB61658, MCF7/TGL cells treated with CO, replicates CO 1-3","11,142 and 13,344 and 11,314"
same,citric acid and phosphoenolpyruvic acid,[1],did not provide statistically significant results
same,"nine common metabolites (fumaric acid, L-Dihydroorotic acid, D-2-Hydroxyglutaric, malic acid, NAD, GDP-glucose, pyruvic acid, inosinic acid, oxoglutaric acid)",[1],significantly downregulated
same,"pyruvic acid, oxoglutaric acid, malic acid, and fumaric acid (TCA intermediates)",[1],significantly downregulated
same,succinic acid,[1],significantly downregulated
same,abundance of metabolites tested (metabolomics profiling),"MCF7/TGL/pQ cells, 250 ppm carbon monoxide for 16 hours",reduced the abundance of the majority of metabolites tested
